Measurements taken from patent publication US20250282734A1 (Bayer Aktiengesellschaft, priority 2021, published 2025).

How the values were obtained:
Format in all cases: physicochemical
[1] = Hygroscopy, dynamic vapour sorption (DVS) isotherms (Example 15)
Description: Water sorption isotherms were determined using a DVS Resolution gravimetric sorption analyzer (London, UK), or a DVS Intrinsic instrument (Surface measurement Systems). The sample was dried for 1000 minutes at 0% relative humidity (R.H.). Afterwards the dry weight was recorded. […] The equilibrium criterion for each relative humidity set point was 0.002% per minute relative mass change as a function of time.

[2] = Solubility of cholinate vs free acid and other salts, shake-flask method (Example 14)
Description: (§1) Preparation of FaSSIF (Fasted State Simulated Intestinal Fluid) blank solution: 4.2 g NaOH, 44.7 g NaH2PO4*2 H2O, and 61.86 g NaCl were dissolved in approximately 9.5 L demineralized water. Then, the pH of this solution was adjusted to 6.50+/−0.05 using HCl or NaOH, respectively. In the last step, the final volume was adjusted to 10.0 L by the addition of demineralized water.
Preparation of the final FaSSIF solution: 4.48 g SIF (Simulated Intestinal Fluids) powder (provider: biorelevant.com, Product code: FFF01 (May 2022)) were dissolved in approximately 500 mL FaSSIF blank solution, then the final volume was adjusted to 2.0 L by the addition of FaSSIF blank solution. After 2 hours, the solution was considered to be ready to use and was used within 48 hours.
as §1, with “FeSSIF (Fed” for “FaSSIF (Fasted”, “40.4” for “4.2”, “118.74” for “44.7”, “NaCl,” for “NaH2PO4*2 H2O,”, “82.4 mL glacial acetic acid” for “61.86 g NaCl”, “5.00+/−0.05” for “6.50+/−0.05”
Preparation of the final FeSSIF solution: 22.4 g SIF powder (provider: biorelevant.com, Product code: FFF01 (May 2022)) were dissolved in approximately 500 mL FeSSIF blank solution, then the final volume was adjusted to 2.0 L by the addition of FeSSIF blank solution. The solution was considered to be ready to use immediately after manufacturing and was used within 48 hours.

[3] = Dissolution profile, flow through cell in FeSSIF / FaSSIF (Example 16); conditions: micronized samples
Description: Prior to the measurements, the samples were micronized using a jet mill (MC DECJET 30) under nitrogen, with a pressure of 4.5 Bar for the injector and 4.0 Bar grinding pressure.
Dissolution rates of the drug substance were then determined using a flow through cell (FTC) from Sotax. All experiments were conducted in triplicates.
Then, the respective medium (FaSSIF or FeSSIF) was pumped through the cell with a pump rate of 2 mL/min for a total time of 14 minutes, resulting in a total volume of 28 mL. This volume was collected in time increments of 2 minutes, leading to 7 collected fractions with 4 mL each. The drug substance concentration of each fraction was determined by HPLC (external standard).

Compound	Change in mass [%], Desorption ([1]; 0% Relative humidity) [%]	Change in mass [%], Sorption ([1]; 0% Relative humidity) [%]	Change in mass [%], Desorption ([1]; 10% Relative humidity) [%]	Change in mass [%], Sorption ([1]; 10% Relative humidity) [%]	Change in mass [%], Desorption ([1]; 20% Relative humidity) [%]	Change in mass [%], Sorption ([1]; 20% Relative humidity) [%]	Change in mass [%], Desorption ([1]; 30% Relative humidity) [%]	Change in mass [%], Sorption ([1]; 30% Relative humidity) [%]	Change in mass [%], Desorption ([1]; 40% Relative humidity) [%]	Change in mass [%], Sorption ([1]; 40% Relative humidity) [%]	Change in mass [%], Desorption ([1]; 50% Relative humidity) [%]	Change in mass [%], Sorption ([1]; 50% Relative humidity) [%]	Change in mass [%], Desorption ([1]; 60% Relative humidity) [%]	Change in mass [%], Sorption ([1]; 60% Relative humidity) [%]	Change in mass [%], Desorption ([1]; 70% Relative humidity) [%]	Change in mass [%], Sorption ([1]; 70% Relative humidity) [%]	Change in mass [%], Desorption ([1]; 80% Relative humidity) [%]	Change in mass [%], Sorption ([1]; 80% Relative humidity) [%]	Change in mass [%], Desorption ([1]; 90% Relative humidity) [%]	Change in mass [%], Sorption ([1]; 90% Relative humidity) [%]	further results
N=C(N)NCCC[C@H](N)C(=O)O.O=C(O)c1cc(NC(=O)C2(c3ccc(C(F)(F)F)cc3F)CC2)ccc1-c1cnn(C2CCC2)c1 [Arginine Salt, Arginine salt of 2-(1-cyclobutyl-1H-pyrazol-4-yl)-5-[({1-[2-fluoro-4-(trifluoromethyl)phenyl]cyclopropyl}carbonyl)amino]benzoate]	31.74	0.00	20.17	1.39	12.15	2.13	10.78	2.98	10.09	4.25	9.59	5.72	9.10	7.20	6.12	9.40	4.54	13.25	2.87	20.10	Change in mass [%], Desorption ([1]; 95% Relative humidity): 1.60%; Change in mass [%], Sorption ([1]; 95% Relative humidity): 31.74%
O=C([O-])c1cc(NC(=O)C2(c3ccc(C(F)(F)F)cc3F)CC2)ccc1-c1cnn(C2CCC2)c1.[Na+] [Sodium salt, Sodium 2-(1-cyclobutyl-1H-pyrazol-4-yl)-5-[({1-[2-fluoro-4-(trifluoromethyl)phenyl]cyclopropyl}carbonyl)amino]benzoate]	−3.95	0.00	−0.87	0.85	0.84	1.36	1.91	1.92	3.33	2.95	5.07	7.77	7.95	11.23	11.79	15.05	16.87	20.22	26.84	30.67	Change in mass [%], Desorption ([1]; 95% Relative humidity): 42.62%; Change in mass [%], Sorption ([1]; 95% Relative humidity): 42.62%; DVS Dm @ 30% R.H. (Sorption) ([1]; summarized results, 30% R.H.): 1.9%; DVS Dm @ 50% R.H. (Sorption) ([1]; summarized results, 50% R.H.): 5.1%; DVS Dm @ 80% R.H. (Sorption) ([1]; summarized results, 80% R.H.): 20.2%; solubility ([2]; Buffer pH 4.5, 25° C.): 3 mgfree acid/L; solubility ([2]; Buffer pH 7, 25° C.): 421 mgfree acid/L; solubility ([2]; Buffer pH 8, 25° C.): 5075 mgfree acid/L; solubility ([2]; FaSSIF (37° C.) (Fasted State Simulated Intestinal Fluid)): 426 mgfree acid/L; solubility ([2]; FeSSIF (37° C.) (Fed State Simulated Intestinal Fluid)): 14 mgfree acid/L; solubility ([2]; Water, 25° C.): 6176 mgfree acid/L; Dissolution profile, comparison in words [3]: no differences
